Reference: patent US20250136606A1, “MODULATORS OF TRPML, THEIR COMPOSITIONS AND METHODS OF USE” (Caraway Therapeutics, Inc., priority 2021, published 2025)

Assays:
Assay type in all cases: cell-based
Details in all cases: fluorescent calcium assay
TRPML3 = biological target: T1, TRPML3 (Homo sapiens, UniProt Q8TDD5); test: Fluorescent TRPML3 assay (performed as for TRPML1, substituting the TRPML3 subtype)
T1 construct: expressed in transfected cells
T1 sequence (Q8TDD5 1-553): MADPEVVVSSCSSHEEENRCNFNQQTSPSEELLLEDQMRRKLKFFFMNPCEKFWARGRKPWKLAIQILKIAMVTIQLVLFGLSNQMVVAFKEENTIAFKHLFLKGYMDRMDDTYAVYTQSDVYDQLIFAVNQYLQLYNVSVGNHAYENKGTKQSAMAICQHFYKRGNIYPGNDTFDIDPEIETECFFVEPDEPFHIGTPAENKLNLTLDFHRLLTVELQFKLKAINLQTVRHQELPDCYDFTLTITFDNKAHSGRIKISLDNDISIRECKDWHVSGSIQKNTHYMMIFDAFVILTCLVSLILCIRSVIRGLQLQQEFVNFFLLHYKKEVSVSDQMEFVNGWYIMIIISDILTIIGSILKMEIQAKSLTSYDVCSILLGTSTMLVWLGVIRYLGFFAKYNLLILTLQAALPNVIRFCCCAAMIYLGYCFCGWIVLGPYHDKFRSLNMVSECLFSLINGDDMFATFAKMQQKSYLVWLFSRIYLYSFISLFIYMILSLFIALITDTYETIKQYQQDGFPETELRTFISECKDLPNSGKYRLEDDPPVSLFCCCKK
Summary of the method: (§1)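 Agonist activity is scored as percent of plate controls from Fluo4 fluorescence after dye-loaded, doxycycline-induced HEK-293 Trex cells meet compound in high-calcium (10 mM) Ringer's. Compounds run in half-log dilutions from 20 micromolar final, in triplicate.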

TRPML2 = biological target: T2, TRPML2 (Homo sapiens, UniProt Q8IZK6); test: Fluorescent TRPML2 assay (performed as for TRPML1, substituting the TRPML2 subtype)
T2 construct: expressed in transfected cells
T2 sequence (Q8IZK6 1-566): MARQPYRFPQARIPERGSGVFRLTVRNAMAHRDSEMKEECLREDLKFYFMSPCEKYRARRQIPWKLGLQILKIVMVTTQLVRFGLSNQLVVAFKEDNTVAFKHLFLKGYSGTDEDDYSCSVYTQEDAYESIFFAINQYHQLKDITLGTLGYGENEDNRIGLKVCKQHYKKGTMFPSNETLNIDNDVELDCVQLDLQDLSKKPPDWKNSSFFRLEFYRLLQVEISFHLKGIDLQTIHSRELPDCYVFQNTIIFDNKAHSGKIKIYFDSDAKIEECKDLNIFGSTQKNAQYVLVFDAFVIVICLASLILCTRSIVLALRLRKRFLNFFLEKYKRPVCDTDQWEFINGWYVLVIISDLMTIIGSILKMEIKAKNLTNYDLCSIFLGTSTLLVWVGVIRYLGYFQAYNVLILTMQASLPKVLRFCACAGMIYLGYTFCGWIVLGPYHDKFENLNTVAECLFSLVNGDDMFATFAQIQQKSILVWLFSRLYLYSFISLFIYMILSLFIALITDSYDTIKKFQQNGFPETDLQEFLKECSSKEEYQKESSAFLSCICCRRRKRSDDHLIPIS
Summary of the method: as §1

TRPML1 = TRPML1 (Homo sapiens, UniProt Q9GZU1); test: Fluorescent TRPML1 assay (Fluo4-AM calcium fluorescence in doxycycline-induced HEK-293 Trex cells)
Summary of the method: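 HEK-293 Trex cells stably expressing surface-directed mutant human TRPML1, induced with 0.5 µg/mL doxycycline overnight, were loaded with 1 µM Fluo4-AM and added to compound (6 nM–20 µM final, half-log steps, triplicate) in Ringer's with 10 mM calcium. Fluorescence ex 480/em 540; EC50 by non-linear regression versus plate controls.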

Chain of TRPML1 (Q9GZU1 whole entry L15A/L16A/L577A/L578A, form open): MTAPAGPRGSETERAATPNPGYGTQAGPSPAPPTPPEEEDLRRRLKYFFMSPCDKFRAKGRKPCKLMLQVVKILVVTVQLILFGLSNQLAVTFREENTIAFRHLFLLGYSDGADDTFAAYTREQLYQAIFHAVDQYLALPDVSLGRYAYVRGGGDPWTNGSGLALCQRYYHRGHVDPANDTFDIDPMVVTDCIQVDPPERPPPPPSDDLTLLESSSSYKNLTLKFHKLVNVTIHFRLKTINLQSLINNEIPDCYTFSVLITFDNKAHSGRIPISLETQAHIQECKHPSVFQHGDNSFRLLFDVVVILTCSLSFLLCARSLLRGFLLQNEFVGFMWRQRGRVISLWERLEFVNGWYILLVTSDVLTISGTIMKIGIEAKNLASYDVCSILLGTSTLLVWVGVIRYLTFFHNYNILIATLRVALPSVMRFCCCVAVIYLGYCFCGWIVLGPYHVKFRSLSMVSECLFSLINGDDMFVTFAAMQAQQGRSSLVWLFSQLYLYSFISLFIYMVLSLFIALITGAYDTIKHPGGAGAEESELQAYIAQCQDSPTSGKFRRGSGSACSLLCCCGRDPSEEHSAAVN

| Compound | EC50 (TRPML3) [nM] | EC50 (TRPML2) [nM] | EC50 (TRPML1) [nM] |
| --- | --- | --- | --- |
| C[C@H]1CN(C(=O)OC(C)(C)C)CCN1c1ncnc2c1c(N1CCCC1)cn2-c1cc(F)cc(F)c1 [Compound 253, tert-butyl (S)-4-(7-(3,5-difluorophenyl)-5-(pyrrolidin-1-yl)-7H-pyrrolo[2,3-d]pyrimidin-4-yl)-3-methylpiperazine-1-carboxylate] | < 100 | 100 to 500 | < 100 |
| C[C@@H]1CN(c2ncnc3c2c(-c2ccccc2F)cn3-c2cnn(C)c2)[C@@H](C)CN1C(=O)OCC(F)(F)F [Compound 254, 2,2,2-trifluoroethyl (2R,5S)-4-(5-(2-fluorophenyl)-7-(1-methyl-1H-pyrazol-4-yl)-7H-pyrrolo[2,3-d]pyrimidin-4-yl)-2,5-dimethylpiperazine-1-carboxylate] | 100 to 500 | > 2000 | 100 to 500 |
| C[C@@H]1CN(C(=O)OC(C)(C)C)CCN1c1ncnc2c1c(N1CCCC1)cn2-c1cc(F)cc(F)c1 [Compound 255, tert-butyl (R)-4-(7-(3,5-difluorophenyl)-5-(pyrrolidin-1-yl)-7H-pyrrolo[2,3-d]pyrimidin-4-yl)-3-methylpiperazine-1-carboxylate] | 100 to 500 | 500 to 2000 | 100 to 500 |
| CC[C@@H]1CN(c2ncnc3c2c(C2CC2)cn3-c2cc(F)cc(F)c2)CCN1C(=O)OC(C)(C)C [Compound 256, tert-butyl (R)-4-(5-cyclopropyl-7-(3,5-difluorophenyl)-7H-pyrrolo[2,3-d]pyrimidin-4-yl)-2-ethylpiperazine-1-carboxylate] | < 100 | 500 to 2000 | < 100 |
| CC[C@H]1CN(c2ncnc3c2c(C2CC2)cn3-c2cc(F)cc(F)c2)CCN1C(=O)OC(C)(C)C [Compound 257, tert-Butyl (S)-4-(5-cyclopropyl-7-(3,5-difluorophenyl)-7H-pyrrolo[2,3-d]pyrimidin-4-yl)-2-ethylpiperazine-1-carboxylate] | 100 to 500 | 500 to 2000 | 100 to 500 |
| CC(C)(C)OC(=O)N1CCN(c2ncnc3c2c(C2CC2)cn3-c2cc(F)cc(F)c2)CC12CC2 [Compound 258, tert-Butyl 7-(5-cyclopropyl-7-(3,5-difluorophenyl)-7H-pyrrolo[2,3-d]pyrimidin-4-yl)-4,7-diazaspiro[2.5]octane-4-carboxylate] | < 100 | 500 to 2000 | < 100 |
| C[C@H]1CN(C(=O)OC(C)(C)C)CCN1c1ncnc2c1c(C1CC1)cn2-c1cncc(C#N)c1 [Compound 259] | 100 to 500 | 500 to 2000 | 100 to 500 |
| C[C@H]1CN(C(=O)OC(C)(C)C)CCN1c1ncnc2c1c(C1CC1)cn2-c1cc(C#N)ccn1 [Compound 260] | < 100 | < 100 | < 100 |
| C[C@H]1CN(C(=O)OC(C)(C)C)CCN1c1ncnc2c1c(C1CCOCC1)nn2-c1ccccc1 [Compound 261, tert-butyl (S)-3-methyl-4-(1-phenyl-3-(tetrahydro-2H-pyran-4-yl)-1H-pyrazolo[3,4-d]pyrimidin-4-yl)piperazine-1-carboxylate] | 500 to 2000 | > 2000 | 500 to 2000 |
| C[C@@H]1CN(c2ncnc3c2c(N2CCC[C@@H]2C)cn3-c2cccc(Cl)c2)CCN1C(=O)OC(C)(C)C [Compound 262, tert-butyl (R)-4-(7-(3-chlorophenyl)-5-((S)-2-methylpyrrolidin-1-yl)-7H-pyrrolo[2,3-d]pyrimidin-4-yl)-2-methylpiperazine-1-carboxylate] | 100 to 500 | 500 to 2000 | < 100 |

Now from value to compound:

| EC50 (TRPML3) [nM] | EC50 (TRPML2) [nM] | EC50 (TRPML1) [nM] | Compound |
| --- | --- | --- | --- |
| 100 to 500 | 500 to 2000 | 100 to 500 | COc1cccc(-n2cc(C3CC3)c3c(N4CCN(C(=O)OC(C)(C)C(F)(F)F)C[C@@H]4C)ncnc32)c1 [Compound 263, 1,1,1-trifluoro-2-methylpropan-2-yl (S)-4-(5-cyclopropyl-7-(3-methoxyphenyl)-7H-pyrrolo[2,3-d]pyrimidin-4-yl)-3-methylpiperazine-1-carboxylate] |
| 100 to 500 | 500 to 2000 | 100 to 500 | COc1cc(OC(F)(F)F)cc(-n2cc(C3CC3)c3c(N4CCN(C(=O)OC(C)(C)C)C[C@@H]4C)ncnc32)c1 [Compound 264, tert-butyl (S)-4-(5-cyclopropyl-7-(3-methoxy-5-(trifluoromethoxy)phenyl)-7H-pyrrolo[2,3-d]pyrimidin-4-yl)-3-methylpiperazine-1-carboxylate] |
| < 100 | 100 to 500 | < 100 | C[C@H]1CN(C(=O)OC(C)(C)C(F)(F)F)CCN1c1ncnc2c1c(C1CC1)cn2-c1cccc(OC(F)(F)F)c1 [Compound 265, 1,1,1-trifluoro-2-methylpropan-2-yl (S)-4-(5-cyclopropyl-7-(3-(trifluoromethoxy)phenyl)-7H-pyrrolo[2,3-d]pyrimidin-4-yl)-3-methylpiperazine-1-carboxylate] |
| < 100 | 500 to 2000 | < 100 | C[C@H]1CN(C(=O)OC(C)(C)C(F)(F)F)CCN1c1ncnc2c1c(C1CC1)cn2-c1cccc(C#N)c1 [Compound 266, 1,1,1-trifluoro-2-methylpropan-2-yl (S)-4-(7-(3-cyanophenyl)-5-cyclopropyl-7H-pyrrolo[2,3-d]pyrimidin-4-yl)-3-methylpiperazine-1-carboxylate] |
| < 100 | 100 to 500 | 100 to 500 | C[C@H]1CN(C(=O)OC(C)(C)C)CCN1c1ncnc2c1c(-c1nccnc1F)cn2-c1cccc(Cl)c1 [Compound 267, tert-butyl (S)-4-(7-(3-chlorophenyl)-5-(3-fluoropyrazin-2-yl)-7H-pyrrolo[2,3-d]pyrimidin-4-yl)-3-methylpiperazine-1-carboxylate] |
| < 100 | < 100 | < 100 | C[C@H]1CN(C(=O)OC(C)(C)C)CCN1c1ncnc2c1c(-c1ccccc1F)cn2-c1cc(C#N)ccn1 [Compound 268, tert-butyl (S)-4-(7-(4-cyanopyridin-2-yl)-5-(2-fluorophenyl)-7H-pyrrolo[2,3-d]pyrimidin-4-yl)-3-methylpiperazine-1-carboxylate] |
| 100 to 500 | 100 to 500 | 100 to 500 | CCc1nccnc1-c1cn(-c2cccc(Cl)c2)c2ncnc(N3CCN(C(=O)OC(C)(C)C)C[C@@H]3C)c12 [Compound 271, tert-butyl (S)-4-(7-(3-chlorophenyl)-5-(3-ethylpyrazin-2-yl)-7H-pyrrolo[2,3-d]pyrimidin-4-yl)-3-methylpiperazine-1-carboxylate] |
| 100 to 500 | 500 to 2000 | 100 to 500 | COc1cccc(-n2cc(-c3cccnc3)c3c(N4CCN(C(=O)OC(C)(C)C)C[C@@H]4C)ncnc32)c1 [Compound 272, tert-butyl-(S)-4-(7-(3-methoxyphenyl)-5-(pyridin-3-yl)-7H-pyrrolo[2,3-d]pyrimidin-4-yl)-3-methylpiperazine-1-carboxylate] |
| 100 to 500 | 500 to 2000 | 100 to 500 | C[C@H]1CN(C(=O)OC(C)(C)C)CCN1c1ncnc2c1c(-c1nccnc1C(F)(F)F)cn2-c1cccc(Cl)c1 [Compound 273, tert-butyl (S)-4-(7-(3-chlorophenyl)-5-(3-(trifluoromethyl)pyrazin-2-yl)-7H-pyrrolo[2,3-d]pyrimidin-4-yl)-3-methylpiperazine-1-carboxylate] |
